Measured values: ChEMBL document CHEMBL3627674, “Discovery of wrightiadione as a novel template for the TrkA kinase inhibitors” (Bioorg Med Chem Lett, 2015)

Tests used:
[1] = biological target: Aurora kinase A (Homo sapiens) (UniProt O14965); assay: Inhibition of AURKA (unknown origin) assessed as remaining activity at 10 uM by high-throughput assay relative to control
[2] = biological target: Tyrosine-protein kinase receptor UFO (Homo sapiens) (UniProt P30530); assay: Inhibition of AXL (unknown origin) assessed as remaining activity at 10 uM by high-throughput assay relative to control
Chain of Tyrosine-protein kinase receptor UFO (Homo sapiens) (P30530 whole entry): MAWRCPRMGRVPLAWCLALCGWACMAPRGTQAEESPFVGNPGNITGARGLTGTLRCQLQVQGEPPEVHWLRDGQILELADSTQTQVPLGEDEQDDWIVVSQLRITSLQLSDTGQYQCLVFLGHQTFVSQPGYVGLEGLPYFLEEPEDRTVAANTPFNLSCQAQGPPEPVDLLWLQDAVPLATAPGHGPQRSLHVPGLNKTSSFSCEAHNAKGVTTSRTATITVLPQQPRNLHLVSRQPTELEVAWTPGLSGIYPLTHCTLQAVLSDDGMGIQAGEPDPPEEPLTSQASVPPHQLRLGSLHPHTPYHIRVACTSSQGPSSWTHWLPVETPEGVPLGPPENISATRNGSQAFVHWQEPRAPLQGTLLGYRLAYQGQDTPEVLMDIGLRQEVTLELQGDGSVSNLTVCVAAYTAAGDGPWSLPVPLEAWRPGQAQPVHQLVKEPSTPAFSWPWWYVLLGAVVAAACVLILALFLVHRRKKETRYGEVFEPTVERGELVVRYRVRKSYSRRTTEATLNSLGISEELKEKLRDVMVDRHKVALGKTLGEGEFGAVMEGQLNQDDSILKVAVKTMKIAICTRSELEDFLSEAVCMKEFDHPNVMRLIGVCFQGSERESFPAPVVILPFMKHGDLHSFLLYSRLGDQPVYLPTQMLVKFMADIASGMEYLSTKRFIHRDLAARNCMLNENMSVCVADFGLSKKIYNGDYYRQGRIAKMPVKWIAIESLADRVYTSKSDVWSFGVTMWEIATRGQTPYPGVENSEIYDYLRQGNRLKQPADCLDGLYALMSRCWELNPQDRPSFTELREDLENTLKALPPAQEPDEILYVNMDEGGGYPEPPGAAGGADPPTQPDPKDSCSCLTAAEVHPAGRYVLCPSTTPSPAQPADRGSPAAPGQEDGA

[3] = biological target: Receptor tyrosine-protein kinase erbB-2 (Homo sapiens) (UniProt P04626); assay: Inhibition of ERBB2 (unknown origin) assessed as remaining activity at 10 uM by high-throughput assay relative to control
[4] = biological target: Serine/threonine-protein kinase PAK 2 (Homo sapiens) (UniProt Q13177); assay: Inhibition of PAK2 (unknown origin) assessed as remaining activity at 10 uM by high-throughput assay relative to control
[5] = biological target: Protein kinase C epsilon type (Homo sapiens) (UniProt Q02156); assay: Inhibition of PRKCE (unknown origin) assessed as remaining activity at 10 uM by high-throughput assay relative to control
[6] = biological target: Ephrin type-A receptor 2 (Homo sapiens) (UniProt P29317); assay: Inhibition of EPHA2 (unknown origin) assessed as remaining activity at 10 uM by high-throughput assay relative to control
[7] = biological target: Bone morphogenetic protein receptor type-2 (Homo sapiens) (UniProt Q13873); assay: Inhibition of BMPR2 (unknown origin) assessed as remaining activity at 10 uM by high-throughput assay relative to control
[8] = biological target: Serine/threonine-protein kinase pim-1 (Homo sapiens) (UniProt P11309); assay: Inhibition of PIM1 (unknown origin) assessed as remaining activity at 10 uM by high-throughput assay relative to control
[9] = biological target: Fibroblast growth factor receptor 3 (Homo sapiens) (UniProt P22607); assay: Inhibition of FGFR3 (unknown origin) assessed as remaining activity at 10 uM by high-throughput assay relative to control
Chain of Fibroblast growth factor receptor 3 (Homo sapiens) (P22607 23-806 limits assumed): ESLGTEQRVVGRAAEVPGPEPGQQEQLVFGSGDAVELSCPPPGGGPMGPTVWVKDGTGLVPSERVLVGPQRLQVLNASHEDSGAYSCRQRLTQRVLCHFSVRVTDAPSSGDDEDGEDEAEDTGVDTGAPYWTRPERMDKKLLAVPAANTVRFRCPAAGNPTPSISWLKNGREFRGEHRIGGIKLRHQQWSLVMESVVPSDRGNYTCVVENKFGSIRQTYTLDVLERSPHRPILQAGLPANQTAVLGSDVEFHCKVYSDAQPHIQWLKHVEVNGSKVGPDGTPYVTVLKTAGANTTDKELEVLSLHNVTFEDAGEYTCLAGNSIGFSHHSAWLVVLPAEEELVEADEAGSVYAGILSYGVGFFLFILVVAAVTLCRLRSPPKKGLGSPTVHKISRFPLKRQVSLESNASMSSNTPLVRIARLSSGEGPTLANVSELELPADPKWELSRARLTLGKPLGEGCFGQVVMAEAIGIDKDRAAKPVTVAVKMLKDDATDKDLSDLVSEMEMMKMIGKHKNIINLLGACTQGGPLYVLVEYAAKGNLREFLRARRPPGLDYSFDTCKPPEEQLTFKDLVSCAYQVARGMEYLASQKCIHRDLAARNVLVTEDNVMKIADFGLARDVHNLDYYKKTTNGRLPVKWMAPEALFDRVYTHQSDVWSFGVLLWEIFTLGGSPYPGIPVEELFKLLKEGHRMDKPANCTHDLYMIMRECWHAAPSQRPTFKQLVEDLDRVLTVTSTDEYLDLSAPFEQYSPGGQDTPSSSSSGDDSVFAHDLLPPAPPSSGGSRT

[10] = biological target: cAMP-dependent protein kinase catalytic subunit alpha (Homo sapiens) (UniProt P17612); assay: Inhibition of PKAC-alpha (unknown origin) assessed as remaining activity at 10 uM by high-throughput assay relative to control
[11] = biological target: Mitogen-activated protein kinase 3 (Homo sapiens) (UniProt P27361); assay: Inhibition of ERK1 (unknown origin) assessed as remaining activity at 10 uM by high-throughput assay relative to control
Chain of Mitogen-activated protein kinase 3 (Homo sapiens) (P27361 whole entry, the tested form may be a part): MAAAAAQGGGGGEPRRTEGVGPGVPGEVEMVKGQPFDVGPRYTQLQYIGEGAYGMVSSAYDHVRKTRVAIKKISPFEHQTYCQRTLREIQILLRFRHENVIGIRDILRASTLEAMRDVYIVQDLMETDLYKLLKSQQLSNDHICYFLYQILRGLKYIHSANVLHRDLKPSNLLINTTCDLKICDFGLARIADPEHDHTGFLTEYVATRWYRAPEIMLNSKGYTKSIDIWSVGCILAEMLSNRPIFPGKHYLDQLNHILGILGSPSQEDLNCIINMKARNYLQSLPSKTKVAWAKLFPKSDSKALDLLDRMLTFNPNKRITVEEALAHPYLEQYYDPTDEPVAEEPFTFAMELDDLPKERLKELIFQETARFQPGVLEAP

[12] = biological target: Tyrosine-protein kinase JAK3 (Homo sapiens) (UniProt P52333); assay: Inhibition of JAK3 JH1 catalytic domain (unknown origin) assessed as remaining activity at 10 uM by high-throughput assay relative to control
[13] = biological target: Activin receptor type-1B (Homo sapiens) (UniProt P36896); assay: Inhibition of ACVR1B (unknown origin) assessed as remaining activity at 10 uM by high-throughput assay relative to control
[14] = biological target: Cyclin-dependent kinase 7 (Homo sapiens) (UniProt P50613); assay: Inhibition of CDK7 (unknown origin) assessed as remaining activity at 10 uM by high-throughput assay relative to control
[15] = biological target: NUAK family SNF1-like kinase 2 (Homo sapiens) (UniProt Q9H093); assay: Inhibition of SNARK (unknown origin) assessed as remaining activity at 10 uM by high-throughput assay relative to control
[16] = biological target: Tyrosine-protein kinase JAK2 (Homo sapiens) (UniProt O60674); assay: Inhibition of JAK2 JH1 catalytic domain (unknown origin) assessed as remaining activity at 10 uM by high-throughput assay relative to control
Chain of Tyrosine-protein kinase JAK2 (Homo sapiens) (O60674 whole entry, the tested form may be a part): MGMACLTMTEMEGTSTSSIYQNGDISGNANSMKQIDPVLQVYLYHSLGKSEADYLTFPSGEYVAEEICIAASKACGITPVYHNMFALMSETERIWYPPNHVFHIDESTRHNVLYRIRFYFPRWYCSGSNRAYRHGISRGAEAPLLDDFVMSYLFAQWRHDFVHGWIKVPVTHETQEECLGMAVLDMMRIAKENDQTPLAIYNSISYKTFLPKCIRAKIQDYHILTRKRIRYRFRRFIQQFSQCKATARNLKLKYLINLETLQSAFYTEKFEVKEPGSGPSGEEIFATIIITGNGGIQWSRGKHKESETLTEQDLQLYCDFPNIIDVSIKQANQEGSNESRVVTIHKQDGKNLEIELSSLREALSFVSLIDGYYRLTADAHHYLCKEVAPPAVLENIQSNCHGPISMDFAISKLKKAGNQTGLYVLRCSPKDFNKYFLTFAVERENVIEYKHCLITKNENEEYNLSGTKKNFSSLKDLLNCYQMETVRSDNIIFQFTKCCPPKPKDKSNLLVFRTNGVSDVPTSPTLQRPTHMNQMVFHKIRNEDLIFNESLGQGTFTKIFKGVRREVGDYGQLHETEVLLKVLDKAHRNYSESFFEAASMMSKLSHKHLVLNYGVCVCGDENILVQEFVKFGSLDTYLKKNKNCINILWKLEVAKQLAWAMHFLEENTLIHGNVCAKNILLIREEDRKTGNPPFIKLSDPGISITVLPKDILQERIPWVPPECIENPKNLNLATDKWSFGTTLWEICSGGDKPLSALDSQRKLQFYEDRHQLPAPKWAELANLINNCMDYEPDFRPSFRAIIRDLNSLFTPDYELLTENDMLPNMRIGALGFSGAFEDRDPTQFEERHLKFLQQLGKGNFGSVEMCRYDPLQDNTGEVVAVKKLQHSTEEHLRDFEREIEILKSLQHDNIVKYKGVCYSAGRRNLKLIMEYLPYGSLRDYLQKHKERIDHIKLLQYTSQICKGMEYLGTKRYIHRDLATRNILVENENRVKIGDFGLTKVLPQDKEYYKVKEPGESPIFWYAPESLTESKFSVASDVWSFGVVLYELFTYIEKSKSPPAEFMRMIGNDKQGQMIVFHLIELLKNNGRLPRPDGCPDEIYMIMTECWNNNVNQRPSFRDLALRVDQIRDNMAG

[17] = biological target: Cyclin-dependent kinase 9 (Homo sapiens) (UniProt P50750); assay: Inhibition of CDK9 (unknown origin) assessed as remaining activity at 10 uM by high-throughput assay relative to control
[18] = biological target: Cyclin-dependent kinase 16 (Homo sapiens) (UniProt Q00536); assay: Inhibition of PCTK1 (unknown origin) assessed as remaining activity at 10 uM by high-throughput assay relative to control
[19] = biological target: Aurora kinase B (Homo sapiens) (UniProt Q96GD4); assay: Inhibition of AURKB (unknown origin) assessed as remaining activity at 10 uM by high-throughput assay relative to control
Chain of Aurora kinase B (Homo sapiens) (Q96GD4 whole entry): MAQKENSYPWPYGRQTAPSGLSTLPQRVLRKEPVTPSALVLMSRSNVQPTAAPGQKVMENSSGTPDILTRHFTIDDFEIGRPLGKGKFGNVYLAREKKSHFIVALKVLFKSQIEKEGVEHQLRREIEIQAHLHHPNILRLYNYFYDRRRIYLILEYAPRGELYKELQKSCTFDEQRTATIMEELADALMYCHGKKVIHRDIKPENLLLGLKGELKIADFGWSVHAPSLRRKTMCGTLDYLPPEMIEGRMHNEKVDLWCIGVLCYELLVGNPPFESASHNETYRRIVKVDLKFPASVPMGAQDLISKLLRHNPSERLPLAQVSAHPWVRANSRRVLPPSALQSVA

[20] = biological target: Mitogen-activated protein kinase 10 (Homo sapiens) (UniProt P53779); assay: Inhibition of JNK3 (unknown origin) assessed as remaining activity at 10 uM by high-throughput assay relative to control
[21] = biological target: Non-receptor tyrosine-protein kinase TYK2 (Homo sapiens) (UniProt P29597); assay: Inhibition of TYK2 JH1 catalytic domain (unknown origin) assessed as remaining activity at 10 uM by high-throughput assay relative to control
[22] = biological target: Serine/threonine-protein kinase PLK1 (Homo sapiens) (UniProt P53350); assay: Inhibition of PLK1 (unknown origin) assessed as remaining activity at 10 uM by high-throughput assay relative to control
[23] = biological target: Serine/threonine-protein kinase PLK3 (Homo sapiens, UniProt Q9H4B4); assay: Inhibition of PLK3 (unknown origin) by radiometric analysis in presence of [gamma-33P]-ATP
Chain of Serine/threonine-protein kinase PLK3 (Q9H4B4 whole entry): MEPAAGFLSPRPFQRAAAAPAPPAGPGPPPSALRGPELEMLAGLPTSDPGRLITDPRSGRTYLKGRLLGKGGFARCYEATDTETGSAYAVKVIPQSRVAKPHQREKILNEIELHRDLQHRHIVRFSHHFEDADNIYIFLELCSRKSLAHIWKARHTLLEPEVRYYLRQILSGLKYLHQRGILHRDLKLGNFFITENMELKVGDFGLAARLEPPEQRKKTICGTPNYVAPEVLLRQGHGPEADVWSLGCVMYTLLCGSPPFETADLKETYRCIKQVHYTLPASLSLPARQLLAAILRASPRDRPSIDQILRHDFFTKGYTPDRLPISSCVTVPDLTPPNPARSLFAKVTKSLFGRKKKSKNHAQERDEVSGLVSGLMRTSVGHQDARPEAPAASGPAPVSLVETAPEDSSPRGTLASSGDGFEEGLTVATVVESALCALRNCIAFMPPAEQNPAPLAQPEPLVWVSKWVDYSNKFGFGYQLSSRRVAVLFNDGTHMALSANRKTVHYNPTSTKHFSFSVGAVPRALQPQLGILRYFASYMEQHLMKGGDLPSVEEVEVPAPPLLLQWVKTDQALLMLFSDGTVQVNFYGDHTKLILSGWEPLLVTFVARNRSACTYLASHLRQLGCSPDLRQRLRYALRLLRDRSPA

[24] = system: Tyrosine-protein kinase ABL1 (Homo sapiens), P00519 [T315I]; assay: Inhibition of ABL1 T315I mutant phosphorylation (unknown origin) assessed as remaining activity at 10 uM by high-throughput assay relative to control
[25] = system: Mast/stem cell growth factor receptor Kit (Homo sapiens), P10721 [V559D,T670I]; assay: Inhibition of KIT V559D/T670I double mutant (unknown origin) assessed as remaining activity at 10 uM by high-throughput assay relative to control
[26] = biological target: Serine/threonine-protein kinase B-raf (Homo sapiens) (UniProt P15056); assay: Inhibition of BRAF (unknown origin) assessed as remaining activity at 10 uM by high-throughput assay relative to control
[27] = biological target: Glycogen synthase kinase-3 beta (Homo sapiens) (UniProt P49841); assay: Inhibition of GSK3B (unknown origin) assessed as remaining activity at 10 uM by high-throughput assay relative to control
[28] = biological target: Fibroblast growth factor receptor 2 (Homo sapiens) (UniProt P21802); assay: Inhibition of FGFR2 (unknown origin) assessed as remaining activity at 10 uM by high-throughput assay relative to control
Chain of Fibroblast growth factor receptor 2 (Homo sapiens) (P21802 22-821 limits assumed): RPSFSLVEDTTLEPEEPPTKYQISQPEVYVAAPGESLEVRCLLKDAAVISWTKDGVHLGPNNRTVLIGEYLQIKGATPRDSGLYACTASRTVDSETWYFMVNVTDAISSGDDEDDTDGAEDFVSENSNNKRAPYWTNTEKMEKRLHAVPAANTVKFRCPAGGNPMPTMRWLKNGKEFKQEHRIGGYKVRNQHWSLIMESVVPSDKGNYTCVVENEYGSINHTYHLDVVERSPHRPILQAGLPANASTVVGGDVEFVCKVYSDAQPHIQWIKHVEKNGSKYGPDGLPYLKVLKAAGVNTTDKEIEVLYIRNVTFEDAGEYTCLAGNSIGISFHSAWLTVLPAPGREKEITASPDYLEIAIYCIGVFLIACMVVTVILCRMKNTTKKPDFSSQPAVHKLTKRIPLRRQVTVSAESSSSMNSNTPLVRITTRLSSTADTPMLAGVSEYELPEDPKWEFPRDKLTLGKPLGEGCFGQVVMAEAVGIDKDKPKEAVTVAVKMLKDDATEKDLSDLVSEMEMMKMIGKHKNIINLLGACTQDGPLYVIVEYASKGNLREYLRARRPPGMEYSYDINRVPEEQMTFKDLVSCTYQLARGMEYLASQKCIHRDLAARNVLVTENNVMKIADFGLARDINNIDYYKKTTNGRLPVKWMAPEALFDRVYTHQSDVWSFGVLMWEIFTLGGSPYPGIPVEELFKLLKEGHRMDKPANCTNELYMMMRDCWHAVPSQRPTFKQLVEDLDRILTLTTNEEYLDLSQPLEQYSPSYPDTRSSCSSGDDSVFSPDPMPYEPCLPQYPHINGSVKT

[29] = biological target: Cyclin-dependent kinase 2 (Homo sapiens) (UniProt P24941); assay: Inhibition of CDK2 (unknown origin) assessed as remaining activity at 10 uM by high-throughput assay relative to control
[30] = biological target: Receptor tyrosine-protein kinase erbB-4 (Homo sapiens) (UniProt Q15303); assay: Inhibition of ERBB4 (unknown origin) assessed as remaining activity at 10 uM by high-throughput assay relative to control
[31] = biological target: Phosphatidylinositol 4-phosphate 3-kinase C2 domain-containing subunit beta (Homo sapiens) (UniProt O00750); assay: Inhibition of PIK3C2B (unknown origin) assessed as remaining activity at 10 uM by high-throughput assay relative to control
[32] = system: Mast/stem cell growth factor receptor Kit (Homo sapiens), P10721 [D816V]; assay: Inhibition of KIT D816V mutant (unknown origin) assessed as remaining activity at 10 uM by high-throughput assay relative to control

- Activity [1]: 82%
- Activity [2]: 26%
- Activity [3]: 92%
- Activity [4]: 82%
- Activity [5]: 96%
- Activity [6]: 80%
- Activity [7]: 53%
- Activity [8]: 93%
- Activity [9]: 54%
- Activity [10]: 92%
- Activity [11]: 87%
- Activity [12]: 61%
- Activity [13]: 82%
- Activity [14]: 59%
- Activity [15]: 70%
- Activity [16]: 42%
- Activity [17]: 71%
- Activity [18]: 92%
- Activity [19]: 66%
- Activity [20]: 33%
- Activity [21]: 44%
- Activity [22]: 38%
- IC50 [23]: 8.97 µM
- Activity [24]: 61%
- Activity [25]: 65%
- Activity [26]: 66%
- Activity [27]: 77%
- Activity [28]: 56%
- Activity [29]: 82%
- Activity [30]: 100%
- Activity [31]: 99%
- Activity [32]: 58%
Compound: O=C1c2ccccc2-c2c1oc1ccccc1c2=O
